Molecular target: T1, HCMV polymerase (Human cytomegalovirus, UniProt P08546)
T1 construct: made in house; host or cells: SF-9 insect cells infected with recombinant baculovirus
Experiment: HCMV polymerase assay (scintillation proximity assay)
Assay type: biochemical
Conditions: percentage of inhibition at 25 μM concentration in CMV polymerase assay
Description: The compounds of the present invention are tested in an polymerase assay to show activity described below, which is indicative of a compound's activity and thus of its use as an anti-viral agent.
The HCMV polymerase assay is performed using a scintillation proximity assay (SPA) as described in several references, such as N. D. Cook, et al., Pharmaceutical Manufacturing International, pages 49-53 (1992); K. Takeuchi, Laboratory Practice, September issue (1992); U.S. Pat. No. 4,568,649 (1986); which are incorporated by reference herein. Reactions are performed in 96-well plates. The assay is conducted in 100 μl volume with 5.4 mM HEPES (pH 7.5), 11.7 mM KCl, 4.5 mM MgCl2, 0.36 mg/ml BSA, and 90 nM ^3 H-dTTP. Assays are run with and without CHAPS, (3-[(3-Cholamidopropyl)-dimethylammonio]-1-propanesulfonate) at a final concentration of 2 mM. HCMV is diluted in enzyme dilution buffer containing 50% glycerol, 250 mM NaCl, 10 mM HEPES (pH 7.5), 100 μg/ml BSA, and 0.01% sodium azide. The HCMV polymerase, which is expressed in recombinant baculovirus-infected SF-9 cells and purified according to literature procedures, is added at 10% (or 10 μl) of the final reaction volume, i.e., 100 μl. Compounds are diluted in 50% DMSO and 10 μl are added to each well. Control wells contain an equivalent concentration of DMSO. Unless noted otherwise, reactions are initiated via the addition of 6 nM biotinylated poly(dA)-oligo(dT) template/primer to reaction mixtures containing the enzyme, substrate, and compounds of interest. Plates are incubated in a 25° C. or 37° C. H2 O bath and terminated via the addition of 40 μl/reaction of 0.5 M EDTA (pH 8) per well. Reactions are terminated within the time-frame during which substrate incorporation is linear and varied depending upon the enzyme and conditions used, i.e., 30 min. for HCMV polymerase. Ten μl of streptavidin-SPA beads (20 mg/ml in PBS/10% glycerol) are added following termination of the reaction. Plates are incubated 10 min. at 37° C., then equilibrated to room temperature, and counted on a Packard Topcount.
In TABLE 1, "MS" refers to mass spectral data, "% inhib" refers to percentage of inhibition at 25 μM concentration in CMV polymerase assay.

T1 sequence (P08546 whole entry): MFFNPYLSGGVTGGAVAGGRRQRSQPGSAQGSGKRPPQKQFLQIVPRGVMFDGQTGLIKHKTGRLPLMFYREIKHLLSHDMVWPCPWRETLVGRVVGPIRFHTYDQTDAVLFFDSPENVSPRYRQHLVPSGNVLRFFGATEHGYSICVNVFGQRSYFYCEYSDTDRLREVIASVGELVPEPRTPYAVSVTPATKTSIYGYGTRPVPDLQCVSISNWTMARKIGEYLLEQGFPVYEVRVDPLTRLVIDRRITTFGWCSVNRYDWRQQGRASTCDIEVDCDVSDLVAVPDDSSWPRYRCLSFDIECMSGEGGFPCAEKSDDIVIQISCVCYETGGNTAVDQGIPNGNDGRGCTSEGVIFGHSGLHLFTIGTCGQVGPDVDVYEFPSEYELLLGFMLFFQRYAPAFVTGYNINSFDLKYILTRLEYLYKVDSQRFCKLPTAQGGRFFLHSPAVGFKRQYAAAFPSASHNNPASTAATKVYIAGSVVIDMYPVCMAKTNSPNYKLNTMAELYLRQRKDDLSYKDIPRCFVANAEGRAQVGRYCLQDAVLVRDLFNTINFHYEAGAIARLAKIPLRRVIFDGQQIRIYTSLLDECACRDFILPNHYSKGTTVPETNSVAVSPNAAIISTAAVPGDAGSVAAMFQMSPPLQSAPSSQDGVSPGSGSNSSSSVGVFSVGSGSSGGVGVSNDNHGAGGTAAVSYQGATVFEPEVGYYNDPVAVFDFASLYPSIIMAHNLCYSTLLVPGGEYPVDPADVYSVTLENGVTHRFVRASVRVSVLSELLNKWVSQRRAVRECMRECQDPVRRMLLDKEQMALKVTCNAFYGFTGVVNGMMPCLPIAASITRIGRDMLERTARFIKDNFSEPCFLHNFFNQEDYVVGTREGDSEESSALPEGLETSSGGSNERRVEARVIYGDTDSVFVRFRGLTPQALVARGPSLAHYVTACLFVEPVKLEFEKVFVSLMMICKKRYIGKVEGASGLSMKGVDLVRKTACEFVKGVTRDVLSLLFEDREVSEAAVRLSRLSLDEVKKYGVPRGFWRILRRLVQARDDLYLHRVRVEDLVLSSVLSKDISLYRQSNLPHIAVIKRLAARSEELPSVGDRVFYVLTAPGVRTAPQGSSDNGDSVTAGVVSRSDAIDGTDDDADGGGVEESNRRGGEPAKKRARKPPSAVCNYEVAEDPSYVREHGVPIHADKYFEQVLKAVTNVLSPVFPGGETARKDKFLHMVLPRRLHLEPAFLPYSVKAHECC

| inhibition at 25 µM | SMILES |
| --- | --- |
| 45.3% | O=C(CCCCCl)Nc1nnc(NCc2cccc3ccccc23)s1 [compound 200, 5-chloro-N-{5-[(1-naphthylmethyl)amino]-1,3,4-thiadiazol-2-yl}pentanamide] |
| 74.6% | O=C(Nc1nnc(NCCCCc2ccccc2)s1)c1ccc(I)cc1 [compound 59, 4-iodo-N-{5-[(4-phenylbutyl)amino]-1,3,4-thiadiazol-2-yl}benzamide] |
| 87.3% | CCCCCCCC/C=C/CCCCCCCC(=O)Nc1nnc(NCC(c2ccccc2)c2ccccc2)s1 [compound 38, (E)-N-{5-[(2,2-diphenylethyl)amino]-1,3,4-thiadiazol-2-yl}-9-octadecenamide] |
| 22.8% | COc1ccc(CNc2nnc(NC(=O)c3cccc([N+](=O)[O-])c3)s2)cc1OC [compound 436, N-{5-[(3,4-dimethoxybenzyl)amino]-1,3,4-thiadiazol-2-yl}-3-nitrobenzamide] |
| 51.5% | O=C(Nc1nnc(NCCSc2ccccc2)s1)c1ccc(Br)cc1 [compound 163, 4-bromo-N-(5-{[2-(phenylsulfanyl)ethyl]amino}-1,3,4-thiadiazol-2-yl)benzamide] |
| 34.5% | O=C(Nc1nnc(NCc2ccc3c(c2)OCO3)s1)c1ccc(F)cc1F [compound 305, N-{5-[(1,3-benzodioxol-5-ylmethyl)amino]-1,3,4-thiadiazol-2-yl}-2,4-difluorobenzamide] |
| 83.1% | CCOc1ccc2ccccc2c1C(=O)Nc1nnc(NC2CCN(Cc3ccccc3)CC2)s1 [compound 45, N-{5-[(1-benzyl-4-piperidinyl)amino]-1,3,4-thiadiazol-2-yl}-2-ethoxy-1-naphthamide] |
| 40.9% | O=C(Nc1nnc(NCc2ccco2)s1)c1ccc(Cl)c(Cl)c1 [compound 247, 3,4-dichloro-N-{5-[(2-furylmethyl)amino]-1,3,4-thiadiazol-2-yl}benzamide] |
| 39.6% | CC(C)c1cc(C(C)C)c(C(=O)Nc2nnc(NCCCCc3ccccc3)s2)c(C(C)C)c1 [compound 260, 2,4,6-triisopropyl-N-{5-[(4-phenylbutyl)amino]-1,3,4-thiadiazol-2-yl}benzamide] |
| 24% | O=C(/C=C/c1ccccc1)Nc1nnc(NCc2cccnc2)s1 [compound 421, (E)-3-phenyl-N-{5-[(3-pyridinylmethyl)amino]-1,3,4-thiadiazol-2-yl}-2-propenamide] |
| 24.1% | CC(C)(C)OC(=O)CCNc1nnc(NC(=O)c2ccc(Cl)c(Cl)c2)s1 [compound 420, tert-butyl 3-({5-[(3,4-dichlorobenzoyl)amino]-1,3,4-thiadiazol-2-yl}amino)propanoate] |
| 24.8% | O=C(Nc1nnc(NCCc2ccccc2)s1)c1cccc([N+](=O)[O-])c1 [compound 411, 3-nitro-N-[5-(phenethylamino)-1,3,4-thiadiazol-2-yl]benzamide] |
| 69.1% | O=C(Nc1nnc(NCc2ccc(Cl)c(Cl)c2)s1)c1c(Cl)cccc1Cl [compound 73, 2,6-dichloro-N-{5-[(3,4-dichlorobenzyl)amino]-1,3,4-thiadiazol-2-yl}benzamide] |
| 39.7% | CC(=O)NCCNc1nnc(NC(=O)c2ccc3c(c2)C(=O)OC3=O)s1 [compound 258, N-(5-{[2-(acetylamino)ethyl]amino}-1,3,4-thiadiazol-2-yl)-1,3-dioxo-1,3-dihydro-2-benzofuran-5-carboxamide] |
| 37.1% | O=C(Nc1nnc(NCCc2ccccc2)s1)c1ccc([N+](=O)[O-])o1 [compound 282, 5-nitro-N-[5-(phenethylamino)-1,3,4-thiadiazol-2-yl]-2-furamide] |
| 32.8% | O=C(CCCCCl)Nc1nnc(NCCCN2CCCC2=O)s1 [compound 325, 5-chloro-N-(5-{[3-(2-oxo-1-pyrrolidinyl)propyl]amino}-1,3,4-thiadiazol-2-yl)pentanamide] |
| 47.2% | O=C(Nc1nnc(NCC(c2ccccc2)c2ccccc2)s1)c1cc2ccccc2s1 [compound 187, N-{5-[(2,2-diphenylethyl)amino]-1,3,4-thiadiazol-2-yl}-1-benzothiophene-2-carboxamide] |
| 55.4% | N#Cc1ccc(C(=O)Nc2nnc(NCCCCc3ccccc3)s2)cc1 [compound 143, 4-cyano-N-{5-[(4-phenylbutyl)amino]-1,3,4-thiadiazol-2-yl}benzamide] |

| inhibition at 25 µM | SMILES |
| --- | --- |
| 44.9% | CCOc1ccc2ccccc2c1C(=O)Nc1nnc(NCCSc2ccccc2)s1 [compound 206, 2-ethoxy-N-(5-{[2-(phenylsulfanyl)ethyl]amino}-1,3,4-thiadiazol-2-yl)-1-naphthamide] |
| 72.2% | CCCCCCCCCCCNc1nnc(NC(=O)c2ccc(C#N)cc2)s1 [compound 65, 4-cyano-N-[5-(undecylamino)-1,3,4-thiadiazol-2-yl]benzamide] |
| 26.3% | NS(=O)(=O)c1ccc(CCNc2nnc(NC(=O)CCCCCl)s2)cc1 [compound 390, N-(5-{[4-(aminosulfonyl)phenethyl]amino}-1,3,4-thiadiazol-2-yl)-5-chloropentanamide] |
| 24.7% | COc1ccccc1C(=O)Nc1nnc(NCc2ccc3c(c2)OCO3)s1 [compound 414, N-{5-[(1,3-benzodioxol-5-ylmethyl)amino]-1,3,4-thiadiazol-2-yl}-2-methoxybenzamide] |
| 74.5% | CCCCCCCCCCCNc1nnc(NC(=O)c2ccc([N+](=O)[O-])o2)s1 [compound 60, 5-nitro-N-[5-(undecylamino)-1,3,4-thiadiazol-2-yl]-2-furamide] |
| 37.9% | O=C(Nc1nnc(NCCCNC2CCCCC2)s1)c1cc(F)cc(F)c1 [compound 275, N-(5-{[3-(cyclohexylamino)propyl]amino]-1,3,4-thiadiazol-2-yl)-3,5-difluorobenzamide] |
| 29.3% | CC(C)c1cc(C(C)C)c(C(=O)Nc2nnc(NCc3ccc4c(c3)OCO4)s2)c(C(C)C)c1 [compound 358, N-{5-[(1,3-benzodioxol-5-ylmethyl)amino]-1,3,4-thiadiazol-2-yl}-2,4,6-triisopropylbenzamide] |
| 68% | CCCCCCCC/C=C/CCCCCCCC(=O)Nc1nnc(NCCC(=O)OC(C)(C)C)s1 [compound 79, tert-butyl-3-({5-[(E)-9-octadecenoylamino]-1,3,4-thiadiazol-2-yl}amino)propanoate] |
| 23.8% | O=C(Nc1nnc(NCc2ccc(F)cc2)s1)c1ccc(F)cc1F [compound 423, 2,4-difluoro-N-{5-[(4-fluorobenzyl)amino]-1,3,4-thiadiazol-2-yl}benzamide] |
| 49.4% | CCCCCCCCCCCNc1nnc(NC(=O)c2cc(F)cc(F)c2)s1 [compound 175, 3,5-difluoro-N-[5-(undecylamino)-1,3,4-thiadiazol-2-yl]benzamide] |
| 58.5% | N#Cc1ccc(C(=O)Nc2nnc(NCCCNC3CCCCC3)s2)cc1 [compound 127] |
| 34.2% | O=C(Nc1nnc(NCCc2ccccc2)s1)c1ccc(Cl)cc1Cl [compound 308, 2,4-dichloro-N-[5-(phenethylamino)-1,3,4-thiadiazol-2-yl]benzamide] |
| 67% | CCOC(=O)N1CCC(Nc2nnc(NC(=O)c3c(OCC)ccc4ccccc34)s2)CC1 [compound 86, ethyl 4-[(5-{[(2-ethoxy-1-naphthyl)carbonyl]amino}-1,3,4-thiadiazol-2-yl)amino]tetrahydro-1(2H)-pyridinecarboxylate] |
| 54.6% | CCSCCNc1nnc(NC(=O)c2ccc(I)cc2)s1 [compound 148, N-(5-{[2-(ethylsulfanyl)ethyl]amino}-1,3,4-thiadiazol-2-yl)-4-iodobenzamide] |
| 91.8% | NS(=O)(=O)c1ccc(CNc2nnc(NC(=O)c3c(Cl)cccc3Cl)s2)cc1 [compound 30, N-(5-{[4-(aminosulfonyl)benzyl]amino}-1,3,4-thiadiazol-2-yl)-2,6-dichlorobenzamide] |
| 40.6% | CCCCCCCC/C=C/CCCCCCCC(=O)Nc1nnc(NCCC#N)s1 [compound 249, (E)-N-{5-[(2-cyanoethyl)amino]-1,3,4-thiadiazol-2-yl}-9-octadecenamide] |
| 24.3% | O=C(Nc1nnc(NCCCN2CCCC2=O)s1)c1ccc(Br)cc1 [compound 419, 4-bromo-N-(5-{[3-(2-oxo-1-pyrrolidinyl)propyl]amino}-1,3,4-thiadiazol-2-yl)benzamide] |
| 50.8% | CCCCCCCCCCCNc1nnc(NC(=O)c2ccc(C)cc2)s1 [compound 167, 4-methyl-N-[5-(undecylamino)-1,3,4-thiadiazol-2-yl]benzamide] |
